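Five concentrations, 48 hours, 96-well plates. TGI: total growth inhibition.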
Legend:
Assay in all cases: NCI anticancer screen, dose series, 48 h
RXF 393 renal = system: RXF 393 renal
BT-549 breast = system: BT-549 breast
K-562 leukemia = system: K-562 leukemia
A549 NSCLC = system: A549 NSCLC
HCT-116 colon = system: HCT-116 colon
MDA-MB-231 breast = system: MDA-MB-231 breast
MOLT-4 leukemia = system: MOLT-4 leukemia
SK-MEL-5 melanoma = system: SK-MEL-5 melanoma
DU-145 prostate = system: DU-145 prostate
SF-539 CNS = system: SF-539 CNS
HT29 colon = system: HT29 colon
UO-31 renal = system: UO-31 renal
MDA-MB-435 = system: MDA-MB-435
SK-OV-3 ovarian = system: SK-OV-3 ovarian
M14 melanoma = system: M14 melanoma
OVCAR-8 ovarian = system: OVCAR-8 ovarian
MCF7 breast = system: MCF7 breast
SW-620 colon = system: SW-620 colon
UACC-257 melanoma = system: UACC-257 melanoma
SK-MEL-28 melanoma = system: SK-MEL-28 melanoma
MDA-N = system: MDA-N
T-47D breast = system: T-47D breast
NCI-H23 lung = system: NCI-H23 lung
SK-MEL-2 melanoma = system: SK-MEL-2 melanoma
UACC-62 melanoma = system: UACC-62 melanoma
A498 renal = system: A498 renal
OVCAR-3 ovarian = system: OVCAR-3 ovarian
ACHN renal = system: ACHN renal
MALME-3M melanoma = system: MALME-3M melanoma
NCI/ADR-RES ovarian = system: NCI/ADR-RES ovarian
HOP-92 NSCLC = system: HOP-92 NSCLC
HS 578T breast = system: HS 578T breast
OVCAR-5 ovarian = system: OVCAR-5 ovarian
COLO 205 colon = system: COLO 205 colon
OVCAR-4 ovarian = system: OVCAR-4 ovarian
CAKI-1 renal = system: CAKI-1 renal
SNB-19 CNS = system: SNB-19 CNS
TK-10 renal = system: TK-10 renal
RPMI-8226 leukemia = system: RPMI-8226 leukemia
KM12 colon = system: KM12 colon
CCRF-CEM leukemia = system: CCRF-CEM leukemia
SN12C renal = system: SN12C renal
EKVX NSCLC = system: EKVX NSCLC
PC-3 prostate = system: PC-3 prostate
SF-268 CNS = system: SF-268 CNS
HL-60(TB) leukemia = system: HL-60(TB) leukemia
NCI-H460 lung = system: NCI-H460 lung
786-0 renal = system: 786-0 renal
HOP-62 NSCLC = system: HOP-62 NSCLC
IGROV1 ovarian = system: IGROV1 ovarian
SNB-75 CNS = system: SNB-75 CNS
HCC-2998 colon = system: HCC-2998 colon
LOX IMVI melanoma = system: LOX IMVI melanoma
HCT-15 colon = system: HCT-15 colon
NCI-H226 lung = system: NCI-H226 lung
SF-295 CNS = system: SF-295 CNS
NCI-H522 lung = system: NCI-H522 lung
SR leukemia = system: SR leukemia
U251 CNS = system: U251 CNS

Measured: TGI

CC(C)NC(=O)OCc1c(COC(=O)NC(C)C)c(-c2ccc[n+](COC(=O)C(C)C)c2)n2c1CCC2
> 79.3 µM: MOLT-4 leukemia
> 83.3 µM: SF-539 CNS
97.4 µM: SR leukemia
> 89.6 µM: RXF 393 renal
> 94.6 µM: HOP-92 NSCLC
91.4 µM: NCI-H522 lung
61.2 µM: A498 renal
> 59.4 µM: HL-60(TB) leukemia
> 91.2 µM: CCRF-CEM leukemia
74.2 µM: CAKI-1 renal
> 100 µM: all other assays above

N#Cc1c2c(c(Nc3ccc(F)cc3)n3c1nc1ccccc13)CCCC2
> 85.2 µM: SNB-19 CNS
> 86 µM: RXF 393 renal
> 100 µM: all other assays above

CC(C)(C)c1ccc(S(=O)(=O)N2C(c3cccc(C4CC[C@@H](C(=O)O)N4S(=O)(=O)c4ccc(C(C)(C)C)cc4)c3)CC[C@H]2C(=O)O)cc1 (stereo partly specified)
87.3 µM: UO-31 renal
> 100 µM: all other assays above

COC(=O)CN1Cc2cc(C)cc(c2O)CN(CC(=O)OC)Cc2cc(C)cc(c2O)CN(CC(=O)OC)Cc2cc(C)cc(c2O)C1
> 61.3 µM: NCI-H226 lung
> 68.5 µM: T-47D breast
> 96.3 µM: MCF7 breast
> 73.7 µM: PC-3 prostate
> 77.1 µM: SK-MEL-2 melanoma
> 75 µM: RXF 393 renal
> 77.2 µM: MDA-MB-231 breast
> 74.7 µM: SNB-75 CNS
> 84.3 µM: A498 renal
> 86.6 µM: M14 melanoma
> 100 µM: all other assays above

— PubChem BioAssay (NCI)
